Experimental data as given in ChEMBL document CHEMBL5678818, “Discovery of potent SOS1 inhibitors that block RAS activation via disruption of the RAS-SOS1 interaction” (Proc Natl Acad Sci U S A, 2019).

How the values were obtained:
[1] = target: Serine/threonine-protein kinase PAK 3 (Homo sapiens) (UniProt O75914); test: Inhibition of PAK3 (unknown origin) assessed as residual activity at 100 nM by KINOMEscan analysis relative to control
[2] = target: T1, Serine/threonine-protein kinase Nek1 (Homo sapiens) (UniProt Q96PY6); test: Inhibition of NEK1 (unknown origin) assessed as residual activity at 100 nM by KINOMEscan analysis relative to control
T1 sequence (whole entry): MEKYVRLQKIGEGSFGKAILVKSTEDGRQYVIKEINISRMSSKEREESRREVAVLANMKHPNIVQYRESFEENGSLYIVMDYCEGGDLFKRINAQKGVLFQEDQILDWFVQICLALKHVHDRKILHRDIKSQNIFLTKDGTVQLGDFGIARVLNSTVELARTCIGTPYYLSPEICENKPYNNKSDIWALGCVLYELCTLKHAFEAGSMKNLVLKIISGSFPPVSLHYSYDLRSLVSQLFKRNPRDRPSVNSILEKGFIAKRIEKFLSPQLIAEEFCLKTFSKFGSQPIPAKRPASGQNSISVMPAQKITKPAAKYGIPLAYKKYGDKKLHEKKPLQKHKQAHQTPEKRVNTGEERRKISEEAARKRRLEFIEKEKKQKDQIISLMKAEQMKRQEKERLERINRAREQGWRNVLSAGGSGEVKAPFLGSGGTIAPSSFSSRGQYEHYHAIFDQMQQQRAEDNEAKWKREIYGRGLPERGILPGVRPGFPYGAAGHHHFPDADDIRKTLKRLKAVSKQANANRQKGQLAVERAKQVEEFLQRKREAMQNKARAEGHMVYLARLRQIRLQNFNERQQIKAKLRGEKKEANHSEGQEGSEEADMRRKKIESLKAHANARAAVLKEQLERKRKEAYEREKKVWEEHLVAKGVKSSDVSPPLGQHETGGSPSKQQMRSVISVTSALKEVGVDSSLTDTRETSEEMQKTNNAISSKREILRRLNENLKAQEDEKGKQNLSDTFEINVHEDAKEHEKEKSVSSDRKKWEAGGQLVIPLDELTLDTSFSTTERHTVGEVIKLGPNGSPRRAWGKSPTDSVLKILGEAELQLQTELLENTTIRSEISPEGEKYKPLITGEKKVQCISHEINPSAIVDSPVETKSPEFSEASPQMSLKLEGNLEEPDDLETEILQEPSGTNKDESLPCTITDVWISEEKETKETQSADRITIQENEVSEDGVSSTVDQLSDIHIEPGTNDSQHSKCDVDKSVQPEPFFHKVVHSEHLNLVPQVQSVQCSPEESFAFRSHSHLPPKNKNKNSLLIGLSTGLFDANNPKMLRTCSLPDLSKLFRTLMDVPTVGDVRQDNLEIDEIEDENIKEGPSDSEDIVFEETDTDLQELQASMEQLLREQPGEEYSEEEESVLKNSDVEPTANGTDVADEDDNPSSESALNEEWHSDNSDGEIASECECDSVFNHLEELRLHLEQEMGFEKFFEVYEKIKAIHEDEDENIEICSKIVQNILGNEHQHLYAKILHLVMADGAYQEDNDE

[3] = target: STE20/SPS1-related proline-alanine-rich protein kinase (Homo sapiens) (UniProt Q9UEW8); test: Inhibition of STK39 (unknown origin) assessed as residual activity at 100 nM by KINOMEscan analysis relative to control
[4] = system: Fibroblast growth factor receptor 3 (Homo sapiens), P22607 [G697C]; test: Inhibition of FGFR3 G697C mutant (unknown origin) assessed as residual activity at 100 nM by KINOMEscan analysis relative to control
Fibroblast growth factor receptor 3 (Homo sapiens), P22607 [G697C], sequence (P22607 whole entry G697C): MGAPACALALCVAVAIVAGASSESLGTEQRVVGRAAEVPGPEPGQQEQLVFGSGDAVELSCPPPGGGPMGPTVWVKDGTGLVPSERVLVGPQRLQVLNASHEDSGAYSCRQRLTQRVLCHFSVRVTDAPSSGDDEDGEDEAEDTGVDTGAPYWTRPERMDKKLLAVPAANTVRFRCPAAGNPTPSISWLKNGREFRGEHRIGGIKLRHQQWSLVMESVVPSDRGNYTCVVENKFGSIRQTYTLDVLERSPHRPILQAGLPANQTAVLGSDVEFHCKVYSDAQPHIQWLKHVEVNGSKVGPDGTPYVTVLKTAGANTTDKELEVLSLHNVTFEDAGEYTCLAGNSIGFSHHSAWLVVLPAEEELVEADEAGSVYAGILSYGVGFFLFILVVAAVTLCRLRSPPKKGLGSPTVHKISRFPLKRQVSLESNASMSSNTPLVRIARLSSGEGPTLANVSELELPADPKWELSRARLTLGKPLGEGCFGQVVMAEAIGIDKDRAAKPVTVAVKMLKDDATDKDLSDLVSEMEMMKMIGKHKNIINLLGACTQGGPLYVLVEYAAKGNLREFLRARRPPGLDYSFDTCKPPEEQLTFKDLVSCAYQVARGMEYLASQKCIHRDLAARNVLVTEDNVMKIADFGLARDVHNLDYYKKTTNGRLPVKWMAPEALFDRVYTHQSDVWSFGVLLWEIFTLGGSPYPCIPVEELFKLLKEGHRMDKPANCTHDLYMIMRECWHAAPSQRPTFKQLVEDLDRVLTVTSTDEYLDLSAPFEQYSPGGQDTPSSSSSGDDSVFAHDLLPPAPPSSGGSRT

[5] = target: T2, Serine/threonine-protein kinase NLK (Homo sapiens) (UniProt Q9UBE8); test: Inhibition of NLK (unknown origin) assessed as residual activity at 100 nM by KINOMEscan analysis relative to control
T2 sequence (whole entry): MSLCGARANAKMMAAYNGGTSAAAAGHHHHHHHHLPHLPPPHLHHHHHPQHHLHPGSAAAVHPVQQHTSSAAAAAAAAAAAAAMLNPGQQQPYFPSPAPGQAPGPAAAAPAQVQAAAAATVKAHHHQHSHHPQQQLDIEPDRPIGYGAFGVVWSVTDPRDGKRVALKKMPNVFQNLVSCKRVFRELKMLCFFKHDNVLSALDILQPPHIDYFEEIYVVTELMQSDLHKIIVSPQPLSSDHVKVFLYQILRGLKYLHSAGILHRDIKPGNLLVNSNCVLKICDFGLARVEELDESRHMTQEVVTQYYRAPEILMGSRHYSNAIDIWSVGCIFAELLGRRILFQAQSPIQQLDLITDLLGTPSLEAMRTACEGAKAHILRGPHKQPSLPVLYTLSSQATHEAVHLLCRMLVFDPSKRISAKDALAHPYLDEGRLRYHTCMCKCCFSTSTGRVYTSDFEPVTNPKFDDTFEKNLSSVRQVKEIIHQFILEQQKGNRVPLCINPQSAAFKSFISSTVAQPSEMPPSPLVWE

[6] = target: Ephrin type-A receptor 5 (Homo sapiens) (UniProt P54756); test: Inhibition of EPHA5 (unknown origin) assessed as residual activity at 100 nM by KINOMEscan analysis relative to control
Ephrin type-A receptor 5 (Homo sapiens), sequence (P54756 whole entry): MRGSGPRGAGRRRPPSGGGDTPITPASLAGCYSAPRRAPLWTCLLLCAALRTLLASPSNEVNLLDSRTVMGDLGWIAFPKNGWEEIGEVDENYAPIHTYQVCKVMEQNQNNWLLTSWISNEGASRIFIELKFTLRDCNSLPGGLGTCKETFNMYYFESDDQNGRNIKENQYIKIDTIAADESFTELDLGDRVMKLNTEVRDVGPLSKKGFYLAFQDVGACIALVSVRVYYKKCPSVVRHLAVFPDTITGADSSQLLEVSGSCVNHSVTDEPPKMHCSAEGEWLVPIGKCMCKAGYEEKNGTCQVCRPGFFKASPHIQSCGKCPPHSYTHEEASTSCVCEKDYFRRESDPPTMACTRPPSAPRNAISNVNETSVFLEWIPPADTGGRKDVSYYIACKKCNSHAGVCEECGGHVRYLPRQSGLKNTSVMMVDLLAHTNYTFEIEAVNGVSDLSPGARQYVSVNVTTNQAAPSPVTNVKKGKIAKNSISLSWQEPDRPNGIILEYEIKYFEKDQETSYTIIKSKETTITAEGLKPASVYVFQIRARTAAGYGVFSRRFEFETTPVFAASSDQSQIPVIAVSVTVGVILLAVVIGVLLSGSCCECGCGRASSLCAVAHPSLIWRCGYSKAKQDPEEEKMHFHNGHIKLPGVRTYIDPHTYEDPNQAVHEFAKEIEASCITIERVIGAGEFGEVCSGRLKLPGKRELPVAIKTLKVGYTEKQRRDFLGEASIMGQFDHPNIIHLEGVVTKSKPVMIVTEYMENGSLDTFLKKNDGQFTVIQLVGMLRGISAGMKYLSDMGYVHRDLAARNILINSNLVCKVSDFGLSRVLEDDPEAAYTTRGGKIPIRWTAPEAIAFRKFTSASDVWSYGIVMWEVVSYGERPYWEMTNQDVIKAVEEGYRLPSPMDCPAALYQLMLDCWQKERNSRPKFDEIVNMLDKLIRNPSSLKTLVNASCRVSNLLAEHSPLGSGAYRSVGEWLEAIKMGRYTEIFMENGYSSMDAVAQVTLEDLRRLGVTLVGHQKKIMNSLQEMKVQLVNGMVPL

[7] = target: T3, Interleukin-1 receptor-associated kinase 4 (Homo sapiens) (UniProt Q9NWZ3); test: Inhibition of IRAK4 (unknown origin) assessed as residual activity at 100 nM by KINOMEscan analysis relative to control
T3 sequence (whole entry): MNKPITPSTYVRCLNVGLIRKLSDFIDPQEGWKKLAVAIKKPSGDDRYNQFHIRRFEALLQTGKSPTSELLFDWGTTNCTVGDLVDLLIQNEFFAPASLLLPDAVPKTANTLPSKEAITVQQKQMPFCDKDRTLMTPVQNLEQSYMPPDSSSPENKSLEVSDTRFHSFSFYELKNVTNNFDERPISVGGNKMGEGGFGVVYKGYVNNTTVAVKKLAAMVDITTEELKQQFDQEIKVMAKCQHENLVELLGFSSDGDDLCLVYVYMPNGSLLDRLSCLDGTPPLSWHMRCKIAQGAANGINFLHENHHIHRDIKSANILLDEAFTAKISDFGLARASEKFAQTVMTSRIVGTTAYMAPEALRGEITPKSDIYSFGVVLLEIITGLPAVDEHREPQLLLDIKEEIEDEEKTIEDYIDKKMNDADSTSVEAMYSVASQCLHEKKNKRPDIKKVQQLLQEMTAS

[8] = target: Calcium/calmodulin-dependent protein kinase type II subunit beta (Homo sapiens) (UniProt Q13554); test: Inhibition of CAMK2B (unknown origin) assessed as residual activity at 100 nM by KINOMEscan analysis relative to control
Calcium/calmodulin-dependent protein kinase type II subunit beta (Homo sapiens), sequence (Q13554 whole entry): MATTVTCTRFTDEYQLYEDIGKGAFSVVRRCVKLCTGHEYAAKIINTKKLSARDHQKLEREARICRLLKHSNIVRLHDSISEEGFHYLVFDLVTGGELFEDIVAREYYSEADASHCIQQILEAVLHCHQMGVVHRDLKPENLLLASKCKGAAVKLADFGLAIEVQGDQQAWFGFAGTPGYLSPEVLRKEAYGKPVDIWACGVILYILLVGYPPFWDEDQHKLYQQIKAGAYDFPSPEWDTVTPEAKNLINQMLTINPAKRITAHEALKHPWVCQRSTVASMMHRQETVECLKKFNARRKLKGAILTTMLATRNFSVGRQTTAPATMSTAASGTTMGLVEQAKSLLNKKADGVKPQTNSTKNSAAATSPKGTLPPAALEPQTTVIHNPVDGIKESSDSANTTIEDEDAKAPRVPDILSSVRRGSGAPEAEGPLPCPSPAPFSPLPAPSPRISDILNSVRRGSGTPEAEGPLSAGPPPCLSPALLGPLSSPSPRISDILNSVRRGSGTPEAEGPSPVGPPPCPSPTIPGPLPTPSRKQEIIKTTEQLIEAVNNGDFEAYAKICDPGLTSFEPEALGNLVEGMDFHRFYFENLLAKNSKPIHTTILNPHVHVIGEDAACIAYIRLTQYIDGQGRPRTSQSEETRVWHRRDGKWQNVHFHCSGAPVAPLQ

[9] = target: Serine/threonine-protein kinase PLK3 (Homo sapiens) (UniProt Q9H4B4); test: Inhibition of PLK3 (unknown origin) assessed as residual activity at 100 nM by KINOMEscan analysis relative to control
Serine/threonine-protein kinase PLK3 (Homo sapiens), sequence (Q9H4B4 whole entry, looked up): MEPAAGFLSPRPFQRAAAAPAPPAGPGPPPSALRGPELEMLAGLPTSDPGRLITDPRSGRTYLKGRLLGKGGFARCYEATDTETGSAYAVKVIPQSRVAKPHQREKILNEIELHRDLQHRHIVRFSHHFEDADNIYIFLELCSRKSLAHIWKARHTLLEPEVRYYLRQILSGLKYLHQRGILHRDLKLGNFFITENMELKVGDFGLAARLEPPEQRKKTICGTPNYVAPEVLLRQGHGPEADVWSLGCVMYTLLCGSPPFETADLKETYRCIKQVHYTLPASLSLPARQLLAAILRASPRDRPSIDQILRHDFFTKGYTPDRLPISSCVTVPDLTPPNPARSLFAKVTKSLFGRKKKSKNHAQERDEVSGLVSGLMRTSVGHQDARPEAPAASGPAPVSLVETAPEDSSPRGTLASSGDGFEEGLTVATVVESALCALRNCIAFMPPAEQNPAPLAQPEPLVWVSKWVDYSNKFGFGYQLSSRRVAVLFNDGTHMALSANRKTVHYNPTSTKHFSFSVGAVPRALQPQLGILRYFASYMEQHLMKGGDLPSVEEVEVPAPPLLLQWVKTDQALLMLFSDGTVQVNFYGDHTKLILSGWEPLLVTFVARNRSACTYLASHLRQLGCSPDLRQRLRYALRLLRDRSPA

Serine/threonine-protein kinase PAK 3 (Homo sapiens), sequence (O75914 whole entry, looked up): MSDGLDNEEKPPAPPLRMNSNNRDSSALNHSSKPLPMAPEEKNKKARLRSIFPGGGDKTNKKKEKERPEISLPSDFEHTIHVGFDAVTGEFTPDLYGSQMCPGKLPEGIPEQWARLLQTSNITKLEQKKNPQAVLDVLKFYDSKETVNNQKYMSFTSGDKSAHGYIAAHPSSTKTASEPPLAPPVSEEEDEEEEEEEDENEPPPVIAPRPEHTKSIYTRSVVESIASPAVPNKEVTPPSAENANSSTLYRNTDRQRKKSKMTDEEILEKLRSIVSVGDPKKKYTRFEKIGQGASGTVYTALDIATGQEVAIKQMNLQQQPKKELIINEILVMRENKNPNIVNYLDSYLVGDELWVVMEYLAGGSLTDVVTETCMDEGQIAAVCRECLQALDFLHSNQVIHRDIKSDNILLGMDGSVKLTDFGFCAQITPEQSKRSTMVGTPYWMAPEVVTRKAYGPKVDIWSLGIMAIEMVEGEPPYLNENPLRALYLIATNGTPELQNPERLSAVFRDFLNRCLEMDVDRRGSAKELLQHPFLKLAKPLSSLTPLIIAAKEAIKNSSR

`COc1cc2ncnc(N[C@H](C)c3cccc4ccccc34)c2cc1OC` gave an Activity [1] of 74%, an Activity [2] of 100% and an Activity [3] of 93%. The Activity [4] was 66%, the Activity [5] was 82% and the Activity [6] was 86%. The Activity [7] was 94%, the Activity [8] was 100% and the Activity [9] was 83%.
